Laboratory results from patent US6610707B1, “Heterocyclic compounds as inhibitors of rotomase enzymes” (Pfizer Inc., priority 1998, dated 2003).

What was measured:
[1] = target: human recombinant FKBP-12 (Homo sapiens, UniProt P62942); assay: coupled colorimetric PPIase (rotamase) assay, IC50 against FKBP-12; format: biochemical; settings: human recombinant FKBP-12, substrate succinyl-AFPF-pNA, 10° C., pH 8.0
From the text: The affinity of the compounds of the formula (I) for FKBP-12 can be determined in vitro in a coupled colorimetric PPlase assay using similar procedures to published methods (e.g. see Kofron, J. L., et al., Biochemistry, 1991, 30, 6127-6134, Zarnt, T., et al., Biochem. J. 1995, 305, 159-164, Holt, D. A., et al., J. Am. Chem. Soc., 1993,115, 9925-9938). In these methods, the cis-trans isomerisation of a hydrophobic amino acid-proline bond in a tetrapeptide substrate (e.g. the phenylalanine-proline bond in N-succinyl-ala-phepro-phe-p-nitroanilide [succinyl-AFPF-pNA]) can be determined by monitoring cleavage of pNA from the transPro-containing peptide by an excess of chymotrypsin.
The IC50 (the concentration of the compound of the formula (I) producing 50% inhibition) values were determined using the following assay methodology. Assay buffer (2.175 ml) (50 mM 4-(2-hydroxyethyl)-1-piperazineethanesulphonic acid (HEPES), 100 mM NaCl, 1 mM dithiothreitol (DTT), pH 8.0) is equilibrated to 10° C. in a cuvette. 12.5 μl of a solution of the present compound in DMSO, 250 μl of a 60 mg/ml solution of a-chymotrypsin in 1 mM aqueous hydrochloric acid and then 50 μl of a solution of human recombinant FKBP-12 (4.5 μM) in assay buffer are added and mixed. The reaction is initiated by addition of 12.5 μl of a solution of 20 mM succinyl-AFPF-pNA in DMSO. The absorbance at 390 nm is monitored for one minute collecting data every 0.25 second. Data are fitted with a first order rate equation with offset and the rate constant obtained corrected for the rate of uncatalysed isomerisation of the substrate. The rate constant determined at different inhibitor concentrations (10 nM to 100 μM) is expressed as % inhibition of the control rate constant. The IC50 is estimated using a nonlinear least squares curve fitting routine of the sigmoidal dose response data.

[2] = target: T1, human recombinant FKBP52 (Homo sapiens, UniProt Q02790); assay: coupled colorimetric PPIase assay, Ki,app against FKBP52; format: biochemical; settings: human recombinant FKBP52, substrate succinyl-ALPF-pNA, printed in the IC50 (nm) FKBP-12 column, read-out: Ki FKBP-52
T1 sequence (Q02790 1-459): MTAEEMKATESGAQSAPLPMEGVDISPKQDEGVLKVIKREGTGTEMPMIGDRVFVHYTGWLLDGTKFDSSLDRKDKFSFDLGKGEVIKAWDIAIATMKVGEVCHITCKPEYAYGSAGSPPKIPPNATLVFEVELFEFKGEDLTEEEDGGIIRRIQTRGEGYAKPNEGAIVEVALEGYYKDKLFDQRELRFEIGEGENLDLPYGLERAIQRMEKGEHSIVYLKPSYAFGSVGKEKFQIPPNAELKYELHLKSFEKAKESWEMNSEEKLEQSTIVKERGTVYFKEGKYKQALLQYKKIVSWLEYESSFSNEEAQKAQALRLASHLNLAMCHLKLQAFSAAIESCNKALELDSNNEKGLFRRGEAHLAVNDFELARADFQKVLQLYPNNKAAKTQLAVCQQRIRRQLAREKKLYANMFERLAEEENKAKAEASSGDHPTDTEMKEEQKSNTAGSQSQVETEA

human recombinant FKBP-12, sequence (P62942 whole entry): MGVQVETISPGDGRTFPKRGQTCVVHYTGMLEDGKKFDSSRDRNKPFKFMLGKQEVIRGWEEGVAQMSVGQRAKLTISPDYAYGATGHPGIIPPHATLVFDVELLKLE

| Compound | IC50 [1] | Ki [2] |
| --- | --- | --- |
| NCc1ccc(OCc2nc([C@@H]3CCCCN3S(=O)(=O)c3nc4ccccc4[nH]3)no2)cc1 [Example 11, 4-(3-[(2S)-1-(1H-Benzo[d]imidazol-2-ylsuffonyl)-2-piperidyl]-1,2,4-oxadiazol-5-ylmethoxy)benzylamine] |  | 685 nM |
| O=S(=O)(c1ccc(F)cc1)N1CCCC[C@H]1c1nnc(CCc2ccccc2)o1 [Example 42] | 2010 nM |  |
| O=S(=O)(c1ccc(F)cc1)N1CCCC[C@H]1c1nnn(Cc2ccccc2)n1 [Example 43] | 1670 nM |  |
| O=S(=O)(c1nc2ccccc2[nH]1)N1CCCCC1c1noc(-c2ncccn2)n1 (centres unmarked) [Example 65] | 442 nM |  |

Further compounds by falling IC50 [1], results first:

| IC50 [1] | Ki [2] | Compound |
| --- | --- | --- |
| 336 nM |  | O=S(=O)(CC1CCCCC1)N1CCCC[C@H]1c1noc(COC2CCNCC2)n1 [Example 23, 3-[(2S)-1-Cyclohexylmethylsulfonyl-2-piperidyl]-5-[4-piperidyloxymethyl]-1,2,4-oxadiazole] |
| 95 nM |  | O=S(=O)(c1nc2ccccc2[nH]1)N1CCCC[C@H]1c1noc(Cc2ccccc2)n1 [Example 1, 1H-Benzo[d]imidazol-2-yl[(2S)-2-(5-benzyl-1,2,4-oxadiazol-3-yl)-1-piperidyl]sulfone] |
| 91 nM |  | CNCc1ccc(OCc2nc(C3CCCCN3S(=O)(=O)c3nc4ccccc4[nH]3)no2)cc1 (centres unmarked) [Example 14, N-[4-(3-[1-(1H-Benzo[d]imidazol-2-ylsulfonyl)-2-piperidyl]-1,2,4-oxadiazol-5-ylmethoxy)benzyl]-N-methylamine] |
| 81 nM |  | NCc1ccc(-c2nc([C@@H]3CCCCN3S(=O)(=O)CC3CCCCC3)no2)o1 [Example 25, [5-(3-(2S)-1-[(Cyclohexylmethyl)sulfonyl]-2-piperidyl-1,2,4-oxadiazol-5-yl)-2-furyl]methylamine] |
